# Reference: US20250108038A1 (priority 2023, published 2025)
# “And” between values parts separate entries of the source, which are not always exact repeats. Equal entries are not always repeated.
# Experiment: Pharmacokinetics after single oral administration to beagle dogs;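 on AUC0-inf of Compound A (as titled): compound A is measured in plasma as a metabolite of the dosed analog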;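 on AUC0-last of Compound A (as titled): compound A is measured in plasma as a metabolite of the dosed analog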;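 on Tlast of Compound A (as titled): compound A is measured in plasma as a metabolite of the dosed analog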;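 on Tmax of Compound A (as titled): compound A is measured in plasma as a metabolite of the dosed analog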
# Assay type: in vivo
# Settings: for Cmax of the analog (Compound I-17/I-19) / T1/2 of the analog (Compound I-17/I-19) / Tmax of the analog (Compound I-17/I-19): oral 10 mg/kg; for plasma concentration of Compound I-17/I-19 (as titled): single PO 80 mg/kg (as titled)
# Protocol: The concentrations of the analytes in the plasma were quantified by liquid chromatography tandem mass spectrometry (LC-MS/MS).
# The bioanalytical assay provided a lower limit of quantification (LLOQ) of 1.0 ng/mL and an upper limit of quantification (ULOQ) of 3000 ng/mL for all the analytes. The data of plasma concentration vs. time were analyzed using Phoenix WinNonlin 8.3 to determine the PK properties of the analytes.
# The test articles were administered orally by gavage. The nominal dose volume was 5 mL/kg for both analogs.
# The observation included appearance, behavior, morbidity and mortality.
# Approximately 0.5 mL blood was collected at each scheduled time point from the peripheral veins.
# The plasma samples were placed in microcentrifuge tubes and stored at −70+10° C. until analysis.
# [1] = after single PO 10 mg/kg of Compound I-17/I-19, female individual
# [2] = after single PO 10 mg/kg of Compound I-17/I-19, female individual, 10 mg/kg
# [3] = after single PO 10 mg/kg of Compound I-17/I-19, female mean
# [4] = after single PO 10 mg/kg of Compound I-17/I-19, male individual
# [5] = after single PO 10 mg/kg of Compound I-17/I-19, male individual, 10 mg/kg
# [6] = after single PO 10 mg/kg of Compound I-17/I-19, male mean
# [7] = after single PO 80 mg/kg (so in the source) of Compound I-17/I-19, female individual, 80 mg/kg
# [8] = after single PO 80 mg/kg (so in the source) of Compound I-17/I-19, female mean
# [9] = after single PO 80 mg/kg (so in the source) of Compound I-17/I-19, male individual
# [10] = after single PO 80 mg/kg (so in the source) of Compound I-17/I-19, male individual, 80 mg/kg
# [11] = after single PO 80 mg/kg (so in the source) of Compound I-17/I-19, male mean
smiles,measurement,setting,value
Clc1ccc(C2(OCC3OCCO3)c3ccccc3C3=NCCN32)cc1 (stereo not shown) [Compound I-19],Tlast of Compound A (as titled),[1],8.00 h
same,Tmax of Compound A (as titled),[1],1.00 h
same,AUC0-inf of Compound A (as titled),[2],786 ng·h/mL and 1047 ng·h/mL
same,AUC0-last of Compound A (as titled),[2],739 ng·h/mL and 932 ng·h/mL
same,Cmax of Compound A (as titled),[2],258 ng/mL and 262 ng/mL
same,MRT0-inf of Compound A (as titled),[2],2.82 h and 3.68 h
same,MRT0-last of Compound A (as titled),[2],2.29 h and 2.65 h
same,T1/2 of Compound A (as titled),[2],2.23 h and 2.77 h
same,AUC0-inf of Compound A (as titled),[3],916 ng·h/mL
same,AUC0-last of Compound A (as titled),[3],836 ng·h/mL
same,Cmax of Compound A (as titled),[3],260 ng/mL
same,MRT0-inf of Compound A (as titled),[3],3.25 h
same,MRT0-last of Compound A (as titled),[3],2.47 h
same,T1/2 of Compound A (as titled),[3],2.50 h
same,Tlast of Compound A (as titled),[3],8.00 h
same,Tmax of Compound A (as titled),[3],1.00 h
same,Tlast of Compound A (as titled),[4],8.00 h
same,Tmax of Compound A (as titled),[4],1.00 h
same,AUC0-inf of Compound A (as titled),[5],843 ng·h/mL and 756 ng·h/mL
same,AUC0-last of Compound A (as titled),[5],801 ng·h/mL and 737 ng·h/mL
same,Cmax of Compound A (as titled),[5],312 ng/mL and 281 ng/mL
same,MRT0-inf of Compound A (as titled),[5],2.72 h and 2.50 h
same,MRT0-last of Compound A (as titled),[5],2.29 h and 2.31 h
same,T1/2 of Compound A (as titled),[5],1.93 h and 1.39 h
same,AUC0-inf of Compound A (as titled),[6],799 ng·h/mL
same,AUC0-last of Compound A (as titled),[6],769 ng·h/mL
same,Cmax of Compound A (as titled),[6],297 ng/mL
same,MRT0-inf of Compound A (as titled),[6],2.61 h
same,MRT0-last of Compound A (as titled),[6],2.30 h
same,T1/2 of Compound A (as titled),[6],1.66 h
same,Tlast of Compound A (as titled),[6],8.00 h
same,Tmax of Compound A (as titled),[6],1.00 h
same,Tlast of Compound A,"after single PO 80 mg/kg (so in the source) of Compound I-17/I-19, female individual",24.0 h
same,AUC0-inf of Compound A,[7],982 ng·h/mL and 1387 ng·h/mL
same,AUC0-last of Compound A,[7],919 ng·h/mL and 1108 ng·h/mL
same,Cmax of Compound A,[7],160 ng/mL and 113 ng/mL
same,MRT0-inf of Compound A,[7],7.98 h and 14.9 h
same,MRT0-last of Compound A,[7],6.23 h and 8.76 h
same,T1/2 of Compound A,[7],6.54 h and 10.7 h
same,Tmax of Compound A,[7],0.500 h and 2.00 h
same,AUC0-inf of Compound A,[8],1185 ng·h/mL
same,AUC0-last of Compound A,[8],1013 ng·h/mL
same,Cmax of Compound A,[8],137 ng/mL
same,MRT0-inf of Compound A,[8],11.5 h
same,MRT0-last of Compound A,[8],7.49 h
same,T1/2 of Compound A,[8],8.61 h
same,Tlast of Compound A,[8],24.0 h
same,Tmax of Compound A,[8],1.25 h
same,Tlast of Compound A,[9],24.0 h
same,Tmax of Compound A,[9],1.00 h
same,AUC0-inf of Compound A,[10],1022 ng·h/mL and 661 ng·h/mL
same,AUC0-last of Compound A,[10],958 ng·h/mL and 622 ng·h/mL
same,Cmax of Compound A,[10],136 ng/mL and 111 ng/mL
same,MRT0-inf of Compound A,[10],8.63 h and 7.66 h
same,MRT0-last of Compound A,[10],7.01 h and 6.08 h
same,T1/2 of Compound A,[10],6.05 h and 6.28 h
same,AUC0-inf of Compound A,[11],841 ng·h/mL
same,AUC0-last of Compound A,[11],790 ng·h/mL
same,Cmax of Compound A,[11],123 ng/mL
same,MRT0-inf of Compound A,[11],8.14 h
same,MRT0-last of Compound A,[11],6.54 h
same,T1/2 of Compound A,[11],6.16 h
same,Tlast of Compound A,[11],24.0 h
same,Tmax of Compound A,[11],1.00 h
same,"Cmax and AUC0-last of Compound A, compared to Compound I-17","male and female dogs, PO",about 2.5 ×
same,Cmax of the analog (Compound I-17/I-19),female dogs,260 ng/mL
same,T1/2 of the analog (Compound I-17/I-19),female dogs,2.50 hours
same,Tmax of the analog (Compound I-17/I-19),female dogs,1 hour
same,Cmax of the analog (Compound I-17/I-19),male dogs,297 ng/mL
same,T1/2 of the analog (Compound I-17/I-19),male dogs,1.66 hours
same,Tmax of the analog (Compound I-17/I-19),male dogs,1 hour
same,plasma concentration of Compound I-17/I-19,"single PO 10 mg/kg, 0.500 h, female individual, 10 mg/kg",257 ng/mL and 246 ng/mL
same,plasma concentration of Compound I-17/I-19,"single PO 10 mg/kg, 0.500 h, female mean",252 ng/mL
same,plasma concentration of Compound I-17/I-19,"single PO 10 mg/kg, 0.500 h, male individual, 10 mg/kg",259 ng/mL and 195 ng/mL
same,plasma concentration of Compound I-17/I-19,"single PO 10 mg/kg, 0.500 h, male mean",227 ng/mL
same,plasma concentration of Compound I-17/I-19,"single PO 10 mg/kg, 1.00 h, female individual, 10 mg/kg",258 ng/mL and 262 ng/mL
same,plasma concentration of Compound I-17/I-19,"single PO 10 mg/kg, 1.00 h, female mean",260 ng/mL
same,plasma concentration of Compound I-17/I-19,"single PO 10 mg/kg, 1.00 h, male individual, 10 mg/kg",312 ng/mL and 281 ng/mL
same,plasma concentration of Compound I-17/I-19,"single PO 10 mg/kg, 1.00 h, male mean",297 ng/mL
same,plasma concentration of Compound I-17/I-19,"single PO 10 mg/kg, 2.00 h, female individual, 10 mg/kg",186 ng/mL and 240 ng/mL
same,plasma concentration of Compound I-17/I-19,"single PO 10 mg/kg, 2.00 h, female mean",213 ng/mL
same,plasma concentration of Compound I-17/I-19,"single PO 10 mg/kg, 2.00 h, male individual",181 ng/mL
same,plasma concentration of Compound I-17/I-19,"single PO 10 mg/kg, 2.00 h, male mean",181 ng/mL
same,plasma concentration of Compound I-17/I-19,"single PO 10 mg/kg, 4.00 h, female individual, 10 mg/kg",50.7 ng/mL and 78.2 ng/mL
same,plasma concentration of Compound I-17/I-19,"single PO 10 mg/kg, 4.00 h, female mean",64.4 ng/mL
same,plasma concentration of Compound I-17/I-19,"single PO 10 mg/kg, 4.00 h, male individual, 10 mg/kg",64.2 ng/mL and 67.7 ng/mL
same,plasma concentration of Compound I-17/I-19,"single PO 10 mg/kg, 4.00 h, male mean",66.0 ng/mL
same,plasma concentration of Compound I-17/I-19,"single PO 10 mg/kg, 6.00 h, female individual, 10 mg/kg",27.8 ng/mL and 50.5 ng/mL
same,plasma concentration of Compound I-17/I-19,"single PO 10 mg/kg, 6.00 h, female mean",39.1 ng/mL
same,plasma concentration of Compound I-17/I-19,"single PO 10 mg/kg, 6.00 h, male individual, 10 mg/kg",27.3 ng/mL and 22.7 ng/mL
same,plasma concentration of Compound I-17/I-19,"single PO 10 mg/kg, 6.00 h, male mean",25.0 ng/mL
same,plasma concentration of Compound I-17/I-19,"single PO 10 mg/kg, 8.00 h, female individual, 10 mg/kg",14.6 ng/mL and 28.7 ng/mL
same,plasma concentration of Compound I-17/I-19,"single PO 10 mg/kg, 8.00 h, female mean",21.7 ng/mL
same,plasma concentration of Compound I-17/I-19,"single PO 10 mg/kg, 8.00 h, male individual, 10 mg/kg",15.2 ng/mL and 9.16 ng/mL
same,plasma concentration of Compound I-17/I-19,"single PO 10 mg/kg, 8.00 h, male mean",12.2 ng/mL
same,plasma concentration of Compound I-17/I-19,"single PO 10 mg/kg, 24.0 h, female individual",BQL
same,plasma concentration of Compound I-17/I-19,"single PO 10 mg/kg, 24.0 h, male individual",BQL
same,Clinical observation,"single PO 10 mg/kg, beagle dogs",diarrhea at 24 hours post-dose
same,plasma concentration of Compound I-17/I-19 (as titled),"0.500 h, female individual, 80 mg/kg",160 ng/mL and 83.0 ng/mL
same,plasma concentration of Compound I-17/I-19 (as titled),"0.500 h, female mean",121 ng/mL
same,plasma concentration of Compound I-17/I-19 (as titled),"0.500 h, male individual, 80 mg/kg",102 ng/mL and 91.6 ng/mL
same,plasma concentration of Compound I-17/I-19 (as titled),"0.500 h, male mean",96.8 ng/mL
same,plasma concentration of Compound I-17/I-19 (as titled),"2.00 h, female individual",113 ng/mL
same,plasma concentration of Compound I-17/I-19 (as titled),"2.00 h, female mean",113 ng/mL
same,plasma concentration of Compound I-17/I-19 (as titled),"2.00 h, male individual, 80 mg/kg",94.9 ng/mL and 78.9 ng/mL
same,plasma concentration of Compound I-17/I-19 (as titled),"2.00 h, male mean",86.9 ng/mL
same,plasma concentration of Compound I-17/I-19 (as titled),"4.00 h, female individual, 80 mg/kg",87.3 ng/mL and 76.1 ng/mL
same,plasma concentration of Compound I-17/I-19 (as titled),"4.00 h, female mean",81.7 ng/mL
same,plasma concentration of Compound I-17/I-19 (as titled),"4.00 h, male individual, 80 mg/kg",87.4 ng/mL and 60.3 ng/mL
same,plasma concentration of Compound I-17/I-19 (as titled),"4.00 h, male mean",73.8 ng/mL
same,plasma concentration of Compound I-17/I-19 (as titled),"6.00 h, female individual, 80 mg/kg",49.1 ng/mL and 57.9 ng/mL
same,plasma concentration of Compound I-17/I-19 (as titled),"6.00 h, female mean",53.5 ng/mL
same,plasma concentration of Compound I-17/I-19 (as titled),"6.00 h, male individual, 80 mg/kg",60.4 ng/mL and 35.4 ng/mL
same,plasma concentration of Compound I-17/I-19 (as titled),"6.00 h, male mean",47.9 ng/mL
same,plasma concentration of Compound I-17/I-19 (as titled),"8.00 h, female individual, 80 mg/kg",32.5 ng/mL and 52.0 ng/mL
same,plasma concentration of Compound I-17/I-19 (as titled),"8.00 h, female mean",42.3 ng/mL
same,plasma concentration of Compound I-17/I-19 (as titled),"8.00 h, male individual, 80 mg/kg",43.8 ng/mL and 20.9 ng/mL
same,plasma concentration of Compound I-17/I-19 (as titled),"8.00 h, male mean",32.4 ng/mL
same,plasma concentration of Compound I-17/I-19 (as titled),"24.0 h, female individual, 80 mg/kg",6.70 ng/mL and 18.2 ng/mL
same,plasma concentration of Compound I-17/I-19 (as titled),"24.0 h, female mean",12.4 ng/mL
same,plasma concentration of Compound I-17/I-19 (as titled),"24.0 h, male individual, 80 mg/kg",7.39 ng/mL and 4.28 ng/mL
same,plasma concentration of Compound I-17/I-19 (as titled),"24.0 h, male mean",5.83 ng/mL
same,plasma concentration of Compound I-17/I-19 (as titled),"[…] h, female mean",116 ng/mL
same,plasma concentration of Compound I-17/I-19 (as titled),"[…] h, male mean",123 ng/mL
